# Data: patent US9346802B2, “CARM1 inhibitors and uses thereof” (Epizyme, Inc., priority 2013, dated 2016)
# Biological target: T1, Human CARM1 (PRMT4) (Homo sapiens, UniProt Q86X55)
# T1 construct: Flag-CARM1-His was eluted with 200 ug/ml FLAG peptide in buffer A; made in house; host or cells: HEK 293F cells infected with recombinant baculovirus (pFastBacMam)
# T1 sequence (Q86X55 1-585 isoform Q86X55-1): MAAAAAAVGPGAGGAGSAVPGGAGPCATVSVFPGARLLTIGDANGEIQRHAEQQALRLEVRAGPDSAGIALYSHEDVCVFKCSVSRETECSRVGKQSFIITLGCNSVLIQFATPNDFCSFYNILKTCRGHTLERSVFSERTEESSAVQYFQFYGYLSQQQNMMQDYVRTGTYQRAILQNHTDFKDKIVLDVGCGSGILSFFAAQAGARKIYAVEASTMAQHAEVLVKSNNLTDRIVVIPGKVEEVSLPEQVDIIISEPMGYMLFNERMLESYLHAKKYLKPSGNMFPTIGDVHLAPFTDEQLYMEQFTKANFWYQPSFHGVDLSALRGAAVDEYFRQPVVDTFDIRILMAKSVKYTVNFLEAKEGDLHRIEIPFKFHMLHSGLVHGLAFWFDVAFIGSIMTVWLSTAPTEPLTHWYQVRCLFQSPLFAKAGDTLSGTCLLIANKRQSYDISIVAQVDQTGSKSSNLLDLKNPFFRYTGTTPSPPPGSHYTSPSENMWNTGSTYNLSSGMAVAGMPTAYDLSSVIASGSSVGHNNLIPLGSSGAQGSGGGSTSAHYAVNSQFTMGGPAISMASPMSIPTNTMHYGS
# Test: CARM1 enzyme assay on peptide substrate (3H-SAM Flashplate)
# Type: biochemical
# Details: CARM1 0.25 nM, 3H-SAM 30 nM, peptide 250 nM, 30 min preincubation; read-out: Biochem IC50
# Description: Peptide representative of human histone H3 residues 16-30 was synthesized with an N-terminal linker-affinity tag motif and a C-terminal amide cap by 21st Century Biochemicals. The peptide was purified by high-performance liquid chromatography (HPLC) to greater than 95% purity and confirmed by liquid chromatography mass spectrometry (LC-MS). The sequence was Biot-Ahx-[…]-amide and contained a monomethylated arginine at position 26 (SEQ ID NO.:1).
# Human CARM1 (PRMT4) (NM_199141.1) transcript clone was amplified from an HEK 293 cDNA library, incorporating a flanking 5′ sequence encoding a FLAG tag ([…]) (SEQ ID NO.:2) fused directly to Ala 2 of CARM1 and 3′ sequence encoding a hexa His sequence ([…]) (SEQ ID NO.:3) fused directly to Ser 608. The gene sequence encoding isoform1 containing a deletion of amino acids 539-561 was amplified subsequently and subcloned into pFastBacMam (Viva Biotech).
# Recombinant baculovirus were generated according to Bac-to-Bac kit instructions (Life Technologies). Protein over-expression was accomplished by infecting exponentially growing HEK 293F cell culture at 1.3×10^6 cell/ml with virus (MOI=10) in the presence of 8 mM sodium butyrate. Infections were carried out at 37° C. for 48 hours, harvested by centrifugation, and stored at −80° C. for purification.
# Expressed full-length human Flag- and His-tagged CARM1 protein was purified from cell paste by anti-flag M2 affinity chromatography with resin equilibrated with buffer containing 20 mM Tris, 150 mM NaCl, 5% glycerol, pH 7.8. Column was washed with 500 mM NaCl in buffer A and Flag-CARM1-His was eluted with 200 ug/ml FLAG peptide in buffer A. Pooled fractions were dialyzed in 20 mM Tris, 150 mM NaCl, 5% glycerol and 1 mM DTT, pH 7.8. The purity of recovered protein was 94.
# The assays were all performed in a buffer consisting of 20 mM Bicine (pH=7.6), 1 mM TCEP, 0.005% BSG, and 0.002% Tween 20, prepared on the day of use. Compounds in 100% DMSO (1 ul) were spotted into a polypropylene 384-well V-bottom plates (Greiner) using a Platemate Plus outfitted with a 384-channel head (Thermo Scientific). DMSO (1 ul) was added to Columns 11, 12, 23, 24, rows A-H for the maximum signal control and 1 ul of SAH, a known product and inhibitor of CARM1, was added to columns 11, 12, 23, 24, rows I-P for the minimum signal control. A cocktail (40 ul) containing the CARM1 enzyme was added by Multidrop Combi (Thermo-Fisher). The compounds were allowed to incubate with CARM1 for 30 min at room temperature, then a cocktail (10 ul) containing ^3H-SAM and peptide was added to initiate the reaction (final volume=51 ul). The final concentrations of the components were as follows: CARM1 was 0.25 nM, ^3H-SAM was 30 nM, peptide was 250 nM, SAH in the minimum signal control wells was 1 mM, and the DMSO concentration was 2%. The assays were stopped by the addition of non-radiolabeled SAM (10 ul) to a final concentration of 300 uM, which dilutes the ^3H-SAM to a level where its incorporation into the peptide substrate is no longer detectable. 50 ul of the reaction in the 384-well polypropylene plate was then transferred to a 384-well Flashplate and the biotinylated peptides were allowed to bind to the streptavidin surface for at least 1 hour before being washed once with 0.1% Tween20 in a Biotek ELx405 plate washer. The plates were then read in a PerkinElmer TopCount plate reader to measure the quantity of ^3H-labeled peptide bound to the Flashplate surface, measured as disintegrations per minute (dpm) or alternatively, referred to as counts per minute (cpm).
# [formula] where dpm=disintegrations per minute, cmpd=signal in assay well, and min and max are the respective minimum and maximum signal controls.
# [formula] where top and bottom are the normally allowed to float, but may be fixed at 100 or 0 respectively in a 3-parameter fit. The Hill Coefficient normally allowed to float but may also be fixed at 1 in a 3-parameter fit. […]
row,SMILES,IC50 [µM]
1,C#Cc1cc(NC2CCOCC2)nc(-c2cccc(OCC(O)CNC)c2)n1 (centres unmarked) [Compound 5-1],3 to 10
2,C=C(Cl)c1cc(NC2CCOCC2)nc(-c2cccc(OCC(O)CNC)c2)n1 (centres unmarked) [Compound 17-1],1 to 3
3,CNCC(O)COc1cccc(-c2nc(NC3CCOCC3)cc(-c3cnn(CC(C)C)c3)n2)c1 (centres unmarked) [Compound 51-1],0.1 to 1
4,CNCC(O)COc1cccc(-c2nc(-c3c(C)noc3C)cc(N(CCOC)CCOC)n2)c1 (centres unmarked) [Compound 52-1],0.1 to 1
5,CNCC(O)COc1cccc(-c2nc(-c3ccc(C(F)(F)F)nc3)cc(N(C)CCC#N)n2)c1 (centres unmarked) [Compound 54-1],0.1 to 1
6,CNCC(O)COc1cc(Cl)cc(-c2nc(-c3ccncc3)c(C)c(N(C)C3CCOCC3)n2)c1 (centres unmarked) [Compound 58-1],0.1 to 1
7,CNCC(O)COc1cccc(-c2nc(-c3ccc(OC)c(OC)c3)cc(N(C)C3CCOCC3)n2)c1 (centres unmarked) [Compound 61-1],1 to 3
8,CNCC(O)COc1cc(Cl)cc(-c2nc(-c3cc(C)nc(C)c3)c(C)c(N(C)C3CCOCC3)n2)c1 (centres unmarked) [Compound 63-1],0.1 to 1
9,CNCC(O)COc1cc(Cl)cc(-c2nc(-c3ccnc(OC)c3)cc(N(CCOC)CCOC)n2)c1 (centres unmarked) [Compound 65-1],0.1 to 1
10,CNCC(O)COc1cccc(-c2nc(NCCCN3CCCC3=O)cc(-c3ccc4c(c3)OCCO4)n2)c1 (centres unmarked) [Compound 66-1],0.1 to 1
11,CNCC(O)COc1cccc(-c2nc(-c3ccc(C(F)(F)F)nc3)cc(N(CCOC)CCOC)n2)c1 (centres unmarked) [Compound 67-1],0.1 to 1
12,CNCC(O)COc1cccc(-c2nc(NCCCN3CCCC3=O)cc(-c3ccc(OC)c(OC)c3)n2)c1 (centres unmarked) [Compound 68-1],0.1 to 1
13,CNCC(O)COc1cc(Cl)cc(-c2nc(-c3cn4ccccc4n3)c(C)c(N(C)C3CCOCC3)n2)c1 (centres unmarked) [Compound 69-1],0.1 to 1
14,CNCC(O)COc1cccc(-c2nc(-c3ccc(S(C)(=O)=O)cc3)cc(N(CCOC)CCOC)n2)c1 (centres unmarked) [Compound 72-1],0.1 to 1
15,CNCC(O)COc1cccc(-c2nc(NCCCN3CCCC3=O)cc(-c3ccc(S(C)(=O)=O)cc3)n2)c1 (centres unmarked) [Compound 73-1],0.1 to 1
16,CNCC(O)COc1cc(Cl)cc(-c2nc(-c3ccc4c(c3)OCCO4)cc(N(CCOC)CCOC)n2)c1 (centres unmarked) [Compound 74-1],0.1 to 1
17,CNCC(O)COc1cc(Cl)cc(-c2nc(-c3ccc(OC)c(OC)c3)cc(N(CCOC)CCOC)n2)c1 (centres unmarked) [Compound 75-1],0.1 to 1

# Further lines, results first:
row,IC50 [µM],SMILES
1,0.1 to 1,CNCC(O)COc1cccc(-c2cc(N(C)C3CCOCC3)nc(C)n2)c1 (centres unmarked) [Compound 1-2]
2,0.1 to 1,CNCC(O)COc1cccc(-c2cc(NC3CCOCC3)nc(N(C)C)n2)c1 (centres unmarked) [Compound 3-2]
3,0.1 to 1,CNCC(O)COc1cccc(-c2nc(C)cc(N(C)C3CCOCC3)n2)c1 (centres unmarked) [Compound 6-1]
4,0.1 to 1,C#Cc1cc(N(C)C2CCOCC2)nc(-c2cccc(OCC(O)CNC)c2)n1 (centres unmarked) [Compound 7-1]
5,0.1 to 1,CNCC(O)COc1cccc(-c2cc(NC3CCOCC3)nc(NC(C)C)n2)c1 (centres unmarked) [Compound 9-2]
6,0.1 to 1,CNCC(O)COc1cccc(-c2cc(N[C@H]3CCOC3)nc(C3CCOCC3)n2)c1 (some centres unmarked) [Compound 10-2]
7,0.1 to 1,CNCC(O)COc1cccc(-c2cc(NC3CCOCC3)nc(-c3ccncc3)n2)c1 (centres unmarked) [Compound 11-2]
8,0.1 to 1,CNCC(O)COc1cccc(-c2nc(NC3CCOCC3)cc(NC3CC3)n2)c1 (centres unmarked) [Compound 12-1]
9,0.1 to 1,CNCC(O)COc1cccc(-c2cc(NC3CCOCC3)nc(N3CCOCC3)n2)c1 (centres unmarked) [Compound 12-2]
10,0.1 to 1,CNCC(O)COc1cccc(-c2nc(N3CCOCC3)nc(N[C@H]3CCOC3)c2C)c1 (some centres unmarked) [Compound 13-2]
11,0.1 to 1,CNCC(O)COc1cccc(-c2nc(NC(C)C)cc(NC3CCOCC3)n2)c1 (centres unmarked) [Compound 16-1]
12,0.1 to 1,CNCC(O)COc1cccc(-c2nc(C(C)C)c(C)c(N(C)C3CCOCC3)n2)c1 (centres unmarked) [Compound 21-1]
13,0.1 to 1,CNCC(O)COc1cccc(-c2nc(NCCOC)cc(-c3cccc(C#N)c3)n2)c1 (centres unmarked) [Compound 23-1]
14,0.1 to 1,CNCC(O)COc1cccc(-c2nc(NC3CCOCC3)cc(N3CCOCC3)n2)c1 (centres unmarked) [Compound 27-1]
15,0.1 to 1,CNCC(O)COc1cc(Cl)cc(-c2nc(C3CC3)cc(N(C)C3CCOCC3)n2)c1 (centres unmarked) [Compound 28-1]
16,0.1 to 1,CNCC(O)COc1cccc(-c2nc(-c3ccnc(OC)c3)cc(N(C)CCC#N)n2)c1 (centres unmarked) [Compound 30-1]
17,0.1 to 1,CNCC(O)COc1cc(Cl)cc(-c2nc(C(C)C)cc(N(C)C3CCOCC3)n2)c1 (centres unmarked) [Compound 31-1]
18,0.1 to 1,CNCC(O)COc1cccc(-c2nc(-c3cc4ccccc4o3)cc(N(C)CCC#N)n2)c1 (centres unmarked) [Compound 35-1]
19,0.1 to 1,CNCC(O)COc1cccc(-c2nc(NC3CCOCC3)cc(-c3cccc(C#N)c3)n2)c1 (centres unmarked) [Compound 38-1]
20,0.1 to 1,CNCC(O)COc1cccc(-c2nc(NCCOC)cc(-c3cccc4ncccc34)n2)c1 (centres unmarked) [Compound 39-1]
21,0.1 to 1,CNCC(O)COc1cccc(-c2nc(-c3ccnc(C)c3)cc(N(C)C3CCOCC3)n2)c1 (centres unmarked) [Compound 40-1]
22,0.1 to 1,CNCC(O)COc1cccc(-c2nc(-c3cncnc3)cc(N(CCOC)CCOC)n2)c1 (centres unmarked) [Compound 43-1]
23,0.1 to 1,CNCC(O)COc1cccc(-c2nc(-c3cccc4ncccc34)cc(N(C)CCC#N)n2)c1 (centres unmarked) [Compound 44-1]
24,0.1 to 1,CNCC(O)COc1cc(Cl)cc(-c2nc(N[C@@H]3CCOC3)c(C)c(C3=CCOCC3)n2)c1 (some centres unmarked) [Compound 47-1]
